In patent publication US6867210B2, “Aryl substituted pyrimidines” (Euro-Celtique S.A., priority 2000, dated 2005):
Structures can show the parent of a compound that is named as a salt. Where two headings read alike, the source gives them in different places.

Tests used:
[1] = biological target: rBIIa/beta 1 sodium channels expressed in Xenopus oocytes (Rattus norvegicus, UniProt P04775); test: Electrophysiological Assay 2: two-electrode voltage clamp in Xenopus oocytes; type: cell-based; details: apparent Ki for the inactivated state from single point inhibition data, read-out: RBIIA/β1 Ki
Method: Electrophysiological Assay 2 was used to measure potencies of compounds of the present invention rBIIa/beta 1 sodium channels expressed in Xenopus oocytes.
Preparation of cRNA encoding cloned rat brain type IIa (rBIIa) and beta 1 (β1): cDNA clones encoding the rat brain beta 1 subunit were cloned in house using standard methods, and mRNA were prepared by standard methods. mRNA encoding rBIIa was provided by Dr. A. Golden (UC Irvine). The mRNAs were diluted and stored at −80° C. in 1 μL aliquots until injection.
Preparation of oocytes: Mature female Xenopus laevis were anaesthetized (20-40 min) using 0.15% 3-aminobenzoic acid ethyl ester (MS-222) following established procedures (Woodward, R. M., et al., Mol. Pharmacol. 41:89-103 (1992)).
Two to six ovarian lobes were surgically removed. Oocytes at developmental stages V-VI were dissected from the ovary, oocytes were still surrounded by enveloping ovarian tissues. Oocytes were defolliculated on the day of surgery by treatment with collagenase (0.5 mg/mL Sigma Type I, or Boehringer Mannheim Type A, for 0.5-1 hr). Treated oocytes were vortexed to dislodge epithelia, washed repeatedly and stored in Barth's medium containing 88 mM NaCl, 1 mM KCl, 0.41 mM CaCl2, 0.33 mM Ca(NO3)2, 0.82 mM MgSO4, 2.4 mM NaHCO3, 5 mM HEPES, pH 7.4 adjusted with 0.1 mg/mL gentamycin sulphate.
Micro-injection of oocytes: Defolliculated oocytes were micro-injected using a Nanoject injection system (Drummond Scientific Co., Broomall, Pa.). Injection pipettes were beveled to minimize clogging. Tip diameter of injection pipettes was 15-35 μm. Oocytes were microinjected with approximately 50 nL 1:10 ratio mixtures of cRNAs for rBIIa and beta 1 respectively.
Electrophysiology: Membrane current responses were recorded in frog Ringer solution containing 115 mM NaCl, 2 mM KCl, 1.8 mM CaCl2, 5 mM HEPES, pH 7.4. Electrical recordings were made using a conventional two-electrode voltage clamp (Dagan TEV-200) over periods ranging between 1-7 days following injection. The recording chamber was a simple gravity fed flow-through chamber (volume […] depending on adjustment of aspirator). Oocytes were placed in the recording chamber, impaled with electrodes and continuously perfused (5-15 mL min^−1) with frog Ringer's solution. The tested compounds were applied by bath perfusion.
Voltage protocols for evoking sodium channel currents: The standard holding potential for whole oocyte clamp was −120 mV. Standard current-voltage relationships were elicited by 40 ms depolarizing steps starting from −60 mV to +50 mV in 10 mV increments. Peak currents were measured as the maximum negative current after depolarizing voltage steps. The voltage from maximum current response was noted and used for the next voltage protocol.
The purpose was to find compounds that are state dependent modifiers of neuronal sodium channels. Preferably, the compounds have a low affinity for the rested/closed state of the channel, but a high affinity for the inactivated state. The following voltage protocol was used to measure a compounds affinity for the inactivated state. Oocytes were held at a holding potential of −120 mV. At this membrane voltage, nearly all of the channels would be in the closed state. Then a 4 second depolarization was made to the voltage where the maximum current was elicited. At the end of this depolarization, nearly all the channels would be in the inactivated state. A 10 ms hyperpolarizing step was then made in order to remove some channels from the incativated state. A final depolarizing test pulse was used to assay the sodium current after this prolonged depolarization (see analysis below). Sodium currents were measured at this test pulse before and after the application of the tested compound. Data was acquired using pClamp 8.0 software and analyzed with clampfit software (Axon instruments). […]

[2] = test system: maximal electroshock-induced seizures (MES); test: Maximum electroshock seizure test (MES), anticonvulsant evaluation; type: in vivo; details: Mus musculus, mice
Source text: The compounds of the present invention may be tested for in vivo anticonvulsant activity after i.v., p.o. or i.p. injection using a number of anticonvulsant tests in mice, including the maximum electroshock seizure test (MES). Maximum electroshock seizures were induced in male NSA mice weighing between 15-20 g and male Sprague-Dawley rats weighing between 200-225 g by application of current (50 mA, 60 pulses/sec, 0.8 msec pulse width, 1 sec duration, D.C., mice; 99 mA, 125 pulses/sec, 0.8 msec pulse width, 2 sec duration, D.C., rats) using a Ugo Basile ECT device (Model 7801). Mice were restrained by gripping the loose skin on their dorsal surface and saline-coated corneal electrodes were held lightly against the two corneae. Rats were allowed free movement on the bench top and ear-clip electrodes were used. […] A tonic seizure was defined as a hindlimb extension in excess of 90 degrees from the plane of the body. Results were treated in a quantal manner.
The ability of 4-[4-(4-fluorophenoxy)phenyl]-pyrimidine-2-carboxamide to block maximal electroshock-induced seizures (MES) was determined according to the method above.
4-[4-(4-Fluorophenoxy)phenyl]-pyrimidine-2-carboxamide was administered p.o. to mice 30 minutes before the test procedure.
The following compounds on Table 1 were tested accordingly after a p.o. administration and also after an i.v. injection. The compounds were injected i.v. 15 minutes before the test procedure.

[3] = iv, i.v. injection 15 minutes before the test, read-out: MES i.v. ED50
[4] = po, p.o., 30 minutes before the test, ED50 = dose protecting 50% of animals, read-out: MES p.o. ED50

Ki [1] [µM] | Compound | ED50 [2, 3] [mg/kg] | ED50 [2, 4] [mg/kg]
99.3 | NC(=O)c1ccc(O)c(-c2ccc(Oc3ccccc3)cc2)n1 [5-hydroxy-6-(4-phenoxyphenyl)pyridine-2-carboxamide] | – | –
11.9 | N#Cc1ccc(C(N)=O)nc1-c1ccc(Oc2ccccc2)cc1 [5-cyano-6-(4-phenoxyphenyl)pyridine-2-carboxamide] | – | –
3.53 | O=CNC(=O)c1nccc(-c2ccc(Oc3ccc(F)cc3)cc2)n1 [4-[4-(4-fluorophenoxy)phenyl]pyrimidine-2-carboxylic acid hydroxymethyleneamide] | 1.5 | 5
9.86 | CCOC(=O)c1nccc(-c2ccc(Oc3ccc(F)cc3)cc2)n1 [4-[4-(4-Fluorophenoxy)phenyl]-pyrimidine-2-carboxylic acid ethyl ester] | – | –
1.13 | NC(=O)c1nccc(-c2ccc(Oc3ccc([N+](=O)[O-])cc3)cc2)n1 [4-[4-(4-Nitrophenoxy)phenyl]-pyrimidine-2-carboxamide] | 3.1 | 10
52.7 | CSc1ccc(-c2cccc(C(N)=O)n2)cc1 [Compound 8d, 6-(4-thiomethylphenyl)pyridine-2-carboxamide] | – | –
4.54 | NC(=O)c1ccc(-c2ccc(Oc3ccc(F)cc3)cc2)nc1C(N)=O [6-[4-(4-fluorophenoxy)phenyl]pyridine-2,3-dicarboxamide] | – | –
11.4 | CNC=NC(=O)c1nccc(-c2ccc(Oc3ccc(F)cc3)cc2)n1 [4-[4-(4-fluorophenoxy)phenyl]pyrimidine-2-carboxylic acid methylaminomethyleneamide hydrochloride] | – | –
58.7 | CCOc1ccc(-c2cccc(C(N)=O)n2)cc1 [Compound 8e, 6-(4-ethoxyphenyl)pyridine-2-carboxamide] | – | –
0.06 | O=C(NCCN1CCCCC1)c1cccc(-c2ccc(Oc3ccc(F)cc3)cc2)n1 [Compound 3, 6-[4-(4-fluorophenoxy)Phenyl]Pyridine Carboxylic Acid N-piperidinylethylamide] | – | –
41.6 | CC(C)c1ccc(-c2cccc(C(N)=O)n2)cc1 [Compound 8c, 6-(4-i-propylphenyl)pyridine-2-carboxamide] | – | –
0.32 | COc1cc(C(=O)NCCN(C)C)nc(-c2ccc(Oc3ccc(F)cc3)cc2)c1 [Compound 19, 4-Methoxy-6-[4-(4-fluorophenoxy)phenyl]pyridine-2-carboxylic acid dimethylaminoethylamide] | – | –
3.43 | COc1cc(C(N)=O)nc(-c2ccc(Oc3ccc(F)cc3)cc2)c1 [Compound 18, 4-Methoxy-6-[4-(4-fluorophenoxy)phenyl]pyridine-2-carboxamide] | – | –
10.5 | CCCCc1ccc(-c2cccc(C(N)=O)n2)cc1 [Compound 8b, 6-(4-n-butylphenyl)pyridine-2-carboxamide] | – | –
6.13 | CC(C)(C)c1ccc(-c2cccc(C(N)=O)n2)cc1 [Compound 8a, 6-(4-tert-butylphenyl)pyridine-2-carboxamide] | – | –
0.33 | Cc1cc(N(C)C)cc(-c2ccc(Oc3ccc(F)cc3)cc2)n1 [Compound 14, 2-Methyl-4-dimethylamino-6-[4-(4-fluorophenoxy)phenyl]pyridine] | – | –
23.9 | COc1ccc(-c2cccc(C(N)=O)n2)cc1 [Compound 8f, 6-(4-methoxyphenyl)pyridine-2-carboxamide] | – | –

More lines, now with the values behind:

Compound | Ki [1] [µM] | ED50 [2, 3] [mg/kg] | ED50 [2, 4] [mg/kg]
CN(C)C=NC(=O)c1ccnc(-c2ccc(Oc3ccc(Cl)cc3F)cc2)n1 [2-[4-(4-chloro-2-fluorophenoxy)phenyl]pyrimidine-4-carboxylic acid dimethylaminomethyleneamide] | – | 1.5 | 4.1
CN(C)c1nccc(-c2ccc(Oc3ccc(F)cc3)cc2)n1 [2-dimethylamino-4-[4-(4-fluorophenoxy)phenyl]pyrimidine] | 27.6 | – | –
CN(C)C(=O)c1cc(N(C)C)nc(-c2ccc(Oc3ccccc3)cc2)n1 [2-(4-phenoxyphenyl)-6-(dimethylamino)pyrimidine-4-carboxylic acid dimethylamide] | – | 2.1 | –
O=C(c1nccc(-c2ccc(Oc3ccc(F)cc3)cc2)n1)C(Br)Br [1-[4-[4-(4-fluorophenoxy)phenyl]pyrimidine-2-yl]-2,2-dibromoethanone] | 10.6 | – | –
COC(=O)c1ccnc(-c2ccc(Oc3ccc(F)cc3)cc2)n1 [2-[4-(4-fluorophenoxy)phenyl]pyrimidine-4-carboxylic acid methyl ester] | 71.5 | – | –
4-[4-(4-fluorophenoxy)phenyl]pyrimidine-2-carbamate | 8.7 | – | –
COC(=O)c1nccc(-c2ccc(Oc3ccc(F)cc3F)cc2)n1 [4-[4-(2,4-difluorophenoxy)phenyl]pyrimidine-2-carboxylic acid methyl ester] | 139 | – | –
O=C(NCCCl)c1nccc(-c2ccc(Oc3ccc(F)cc3)cc2)n1 [4-[4-(4-fluorophenoxy)phenyl]pyrimidine-2-carboxylic acid 2-chloroethylamide] | 2.62 | – | –
CNC(=O)c1nccc(-c2ccc(Oc3ccc(F)cc3)cc2)n1 [4-[4-(4-Fluorophenoxy)phenyl]-pyrimidine-2-carboxylic acid methylamide] | – | 2.8 | 6.1
Cc1nc(-c2ccc(Oc3ccc(F)cc3)cc2)ccc1C(N)=O [2-methyl-6-[4-(4-fluorophenoxy)phenyl]pyridine-3-carboxamide] | 8.45 | – | –
Fc1ccc(Oc2ccc(-c3ccnc(-c4ccno4)n3)cc2)cc1 [2-(5-isoxazolyl)-4-[4-(4-fluorophenoxy)phenyl]pyrimidine] | 2.63 | – | –
Fc1ccc(Oc2ccc(-c3ccnc(-c4nc[nH]n4)n3)cc2)cc1 [2-[3-(1,2,4-triazolyl)]-4-[4-(4-fluorophenoxy)phenyl]pyrimidine] | 5.91 | – | –
